Earlier results on five molecules are cited in patent US8834858B2, “Treatment for dyslipidemia” (Solvotrin Therapeutics Ltd., priority 2011, dated 2014).

Where two headings read alike, the source gives them in different places.

The conditions of data set [1]: cited from earlier work.
For data set [2] the following is noted: cited from earlier work. The source holds these as a separate data set.
The conditions of data set [3]: cited from earlier work. The source holds these as a separate data set.
For data set [4] the following is noted: cited from earlier work. This is another data set of the same source.
The test system of data set [5] is LDL cholesterol, HDL cholesterol, TG. As to conditions: adult dyslipidemias; cited from earlier work.
The next data set has as its target PGD2 receptor-1 (DP1) (Homo sapiens, UniProt Q13258). As to conditions: cited from earlier work; for reduction of flushing associated with 1.5 g ER nicotinic acid: single dose study.
Another data set has as its system TG, LDL, HDL. Particulars: atorvastatin 10 mg/day, Slo-Niacin to 1500 mg/day, 3-month segments; cited from earlier work.
In data set [6] the test system is fasting glucose, glycated albumin, TG, total cholesterol. Particulars: cited from earlier work; for fall in fasting glucose levels: two weeks.
In data set [7] the test system is fasting glucose, glycated albumin. As to conditions: 4.0 g, one month; cited from earlier work.
The next data set has as its system HbA1c. As to conditions: cited from earlier work.
Setting [8] is: high risk patients (secondary prevention).

PGD2 receptor-1 (DP1), sequence (Q13258 whole entry): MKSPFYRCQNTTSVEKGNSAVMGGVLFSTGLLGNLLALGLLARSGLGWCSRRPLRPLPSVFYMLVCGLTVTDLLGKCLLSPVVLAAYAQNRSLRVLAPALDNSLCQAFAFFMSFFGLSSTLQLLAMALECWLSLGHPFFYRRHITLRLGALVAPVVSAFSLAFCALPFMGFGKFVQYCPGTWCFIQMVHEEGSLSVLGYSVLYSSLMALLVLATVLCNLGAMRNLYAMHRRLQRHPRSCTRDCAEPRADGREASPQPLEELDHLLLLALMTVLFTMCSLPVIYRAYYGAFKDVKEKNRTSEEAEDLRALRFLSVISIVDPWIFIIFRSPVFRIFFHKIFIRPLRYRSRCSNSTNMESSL

Regarding `CC(=O)Oc1ccccc1C(=O)O` [aspirin], the “prevention of non-fatal vascular events” value in [1] (setting [8]) is “about 30%”. Moreover, the “prevention of vascular death” value in [1] (setting [8]) is recorded as “approximately 15%”. In [1] (patients with unstable angina), the risk reduction result is given as “approximately 50%”. Besides, the “reductions in risk of MI” value in [1] (primary prevention) was 25%-33. In addition, the “avoidance of a major vascular event” value in data set [1] (prior MI, stroke, or TIA, approximately 30 months) was 36 per 1,000 patients; in data set [1] (unstable angina, treated for 6 months) it was 50 per 1,000 patients. In addition, the “Lowest effective daily dose” value in data set [2] (Acute MI) is 160 mg; in data set [2] (Acute ischaemic stroke), 160 mg; in data set [2] (Hypertension) it was 75 mg; in data set [2] (Men at high CV risk) it was 75 mg; in data set [2] (Polycythemia), 100 mg; in [2] (Severe carotid artery stenosis), 75 mg. Also, the “Lowest effective daily dose” value in data set [2] (Stable angina) is given as 75 mg; in data set [2] (TIA and ischaemic stroke), 50 mg; in data set [2] (Unstable angina) it was 75 mg. The “effect on flushing symptoms” value in data set [3] (325 mg, 30-60 minutes before IR nicotinic acid) was “attenuated flushing symptoms”. Further, in [3] (first week of treatment, with vs without aspirin), the “patients with moderate or greater flushing” value was 15%. The flushing-specific discontinuation rate in [3] (four week study, 325 mg aspirin before ER nicotinic acid vs no aspirin) is 1.8%. In data set [3] (pre-treatment with aspirin), the “reduction of the incidence of flushing” value is 18%. Moreover, in data set [3] (with adjunctive aspirin), the “mean rate of treatment discontinuation because of nicotinic acid flushing” value was “approximately 6.5%”. Moreover, in data set [4] (daily aspirin use even at low doses), the “patients with at least occult bleeding” value is listed as “More than 75%”. The “absolute annual increased risk of major bleeding episodes” value in data set [4] (low dose aspirin (75-325 mg daily), 22 randomized trials) is listed as 1.3 per 1000 patients.

Consider `O=C1[C@H](CC[C@H](O)c2ccc(F)cc2)[C@@H](c2ccc(O)cc2)N1c1ccc(F)cc1` [Ezetimibe], for which, in data set [5], the HDL cholesterol entry was “+3%”, the LDL cholesterol is −18 to −24% and the TG result is given as “No change”.

With `CS(=O)(=O)c1cc(F)cc2c3c(n(Cc4ccc(Cl)cc4)c12)[C@@H](CC(=O)O)CC3` [laropiprant], the “reduction of flushing associated with 1.5 g ER nicotinic acid” value at PGD2 receptor-1 (DP1) (30 mg dose) is 47%; at PGD2 receptor-1 (DP1) (100 mg dose), 67%; at PGD2 receptor-1 (DP1) (300 mg dose), 74%. For the same molecule, the overall discontinuation rate at PGD2 receptor-1 (DP1) (4,700 patients, ER nicotinic acid without vs with added laropiprant) is recorded as 25.3%. Moreover, the “rate of moderate/severe flushing” value at PGD2 receptor-1 (DP1) (nicotinic acid without vs with added laropiprant (Kush 2009)) is listed as 24%.

Regarding `CC(C)c1c(C(=O)Nc2ccccc2)c(-c2ccccc2)c(-c2ccc(F)cc2)n1CC[C@@H](O)C[C@@H](O)CC(=O)O` [Atorvastatin], in the data set on TG, LDL, HDL, the HDL entry is given as “+6%”, the LDL is recorded as −36% and the TG is −26%.

For `O=C(Oc1ccccc1C(=O)O)c1ccccc1O` [salsalate], the “fall in fasting glucose levels” value in data set [6] (3.0 g/daily) is 9%; in [6] (4.5 g daily), 19%. In addition, the “decrease in TG concentrations” value in data set [6] (3.0 g) is reported as 11%; in [6] (4.5 g), 40%. Also, the “reduction in glycated albumin” value in [6] (4.5 g dose) is given as 19%. Besides, the “fall in total cholesterol” value in data set [6] (in vivo) was 12%. The “reduction of fasting glucose compared with placebo” value in data set [7] is 13%. Moreover, the “reduction of glycated albumin” value in data set [7] was 17%. Also, in data set [7], the “reduction of glycemic response after an oral glucose challenge” value is 20%. The “mean change in HbA1c levels compared with placebo” value is listed as −0.36% in the data set on HbA1c (3.0 g daily), −0.34% in the data set on HbA1c (3.5 g daily) and −0.49% with HbA1c (4.0 g daily).
